Experimental data as given in patent publication US10537579B2, “Rejection reaction suppressant” (JUNTENDO EDUCATIONAL FOUNDATION, priority 2017, dated 2020).

Tests used:
Format in all cases: in vivo
[1] = tested on: foxp3, IL-10 and TGFβ1 in transplanted mouse corneas; assay: Mouse corneal transplant model: expression levels in the corneas by real-time PCR (qPCR) on day 14; conditions: day 14 after corneal transplantation
Experimental: (§1) Mouse corneal transplant models were prepared (surgery), divided into groups (Group P, Group R2, and Group R3), and treated (ocular instillation) in the same manner as in Example 1. On day 14 after transplantation, cervical lymph node cells were collected, and CD4^+ T cells, the expression levels of inflammatory cytokines IFNγ and IL-17, CD4^+CD25^+Foxp3^+ regulatory T cells (Tregs) involved in immune tolerance, […], and the expression level of Foxp3 (Mean Fluorescein Intensity, MFI) were measured by flow cytometry (FACS). Further, on day 14 after transplantation, the expression levels of foxp3, IL-10, and TGFβ1 in the corneas were also measured by a real-time PCR (qPCR).

[2] = tested on: CD31, VEGF-A and Lyve-1 in transplanted mouse corneas; assay: Mouse corneal transplant model: expression levels in the corneas by real-time PCR on day 56; conditions: Group R3: three times daily, vs Group P, p<0.001
Experimental: (§2) Mouse corneal transplant models were prepared in accordance with a method described in a document (J Biol Methods 2015 2(3); e 27, hereinafter referred to as Document A) and used in an experiment. More specifically, allograft corneal transplantation was performed between 6 to 8-week-old donor male C57BL/6 mice and 6 to 8-week-old host male Balb/c mice.
(§3) The mice that had received corneal transplantation were divided into three groups (5 mice per group): ocular instillation of PBS twice daily (Group P: control group); ocular instillation of ripasudil twice daily (Group R2); and ocular instillation of ripasudil three times daily (Group R3).
(§4) The amount of PBS or ripasudil instilled into one eye per administration was 0.1 μL, and GLANATEC ophthalmic solution 0.4% was used as ripasudil.
(§5) After transplantation, the ocular instillation was performed every day until day 56, during which the angiogenesis score and opacity score (each of which was determined by a method described in. Document A) and the survival time of corneal grafts were evaluated with a slit lamp microscope every 7 days. On day 56 that was the final day of the experiment, in addition to the above evaluations, the expression levels of vascular endothelial cells (CD31), vascular endothelial cell growth factor (VEGF-A), and lymph vessels (Lyve-1) in the corneas were measured by real-time-PCR.

[3] = tested on: transplanted human cornea; assay: Effects on transplanted human cornea (case, angiogenesis in corneal graft); conditions: after 3 weeks of ocular instillation
Experimental: Corneal transplantation was performed in a case of corneal perforation resulting from corneal herpes (person), and as a result, severe hyperemia was observed one month after surgery, and vascularization was observed also in a corneal graft. Peripheral anterior synechia was observed, and secondary glaucoma was observed, and therefore GLANATEC ophthalmic solution 0.4% was prescribed.

[4] = tested on: mouse cervical lymph node cells; assay: Mouse corneal transplant model: cervical lymph node cells by flow cytometry (FACS) on day 14; conditions: day 14 after transplantation
Experimental: as §1

[5] = tested on: transplanted mouse corneas; assay: Mouse corneal transplant model: angiogenesis score, opacity score and graft survival by slit lamp microscope; conditions: Group R3: ocular instillation three times daily
Experimental: as §2, §3, §4, §5

[6] = until day 56, vs Group P (PBS), p<0.05

## C[C@H]1CNCCCN1S(=O)(=O)c1cccc2cncc(F)c12.Cl.O.O [ripasudil, 4-fluoro-5-{[(2S)-2-methyl-1,4-diazepan-1-yl]sulfonyl}isoquinoline monohydrochloride dihydrate]
[1]; Group R2: twice daily
  expression of foxp3 in the corneas: significantly increased
[1]; Group R3: three times daily
  expression of IL-10 in the corneas: significantly increased
  expression of TGFβ1 in the corneas: significantly increased
  expression of foxp3 in the corneas: significantly increased
[2]
  CD31 expression level in the corneas: significantly lower
  Lyve-1 expression level in the corneas: significantly lower
  VEGF-A expression level in the corneas: significantly lower
[3]
  numerical analysis of new blood vessels with Image J (FIG. 10): effect of suppressing angiogenesis
[4]; Group R2: twice daily
  Foxp3 expression level (MFI) in cervical lymph node cells: significantly increased
[4]; Group R3: three times daily
  CD4+CD25+Foxp3+ regulatory T cells (Tregs) in cervical lymph node cells: significantly increased
  CD4+CD25+Foxp3− regulatory T cells (exTregs) in cervical lymph node cells: significantly reduced
  Foxp3 expression level (MFI) in cervical lymph node cells: significantly increased
  inflammatory cytokine IFN-γ in cervical lymph node cells: significant reduction
[5]
  transparency of transplanted cornea (photographs, FIG. 1): maintained until day 56
[5]; [6]
  angiogenesis score: significantly lower
  opacity score: significantly lower
  survival time of corneal grafts: significantly prolonged
